The source of these data is PubChem BioAssay AID330 (DTP/NCI, 2004).

The test deals with P388 leukemia ip, CD2F1 mice, survival T/C. The test is described as follows: NCI In Vivo Anticancer Drug Screen. Data for tumor model P388 Leukemia (intraperitoneal) in CD2F1 (CDF1) mice. The settings on record: endpoint: median survival time, higher = longer survival. Summed up: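 Mice carrying the transplanted tumor received test compound or vehicle. Survival was recorded in each group, and the value is the treated-group measurement divided by that of the vehicle-treated control group.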

[1] abbreviates: dose: 50.0 mg/kg/injection, schedule: Q01DX005 (ip), vehicle: saline with Tween-80.
Setting [2] is: dose: 100.0 mg/kg/injection, schedule: Q01DX005 (ip), vehicle: saline with Tween-80.
[3] abbreviates: dose: 100.0 mg/kg/injection, schedule: Q01DX001 (ip), vehicle: Klucel (hydroxypropylcellulose) (HPC).
[4] abbreviates: dose: 200.0 mg/kg/injection, schedule: Q01DX001 (ip), vehicle: Klucel (hydroxypropylcellulose) (HPC).
Setting [5] is: dose: 200.0 mg/kg/injection, schedule: Q01DX005 (ip), vehicle: saline with Tween-80.
The mark [6] stands for this setting: dose: 50.0 mg/kg/injection, schedule: Q01DX009 (ip), vehicle: saline.
Where [7] appears, read: dose: 100.0 mg/kg/injection, schedule: Q01DX009 (ip), vehicle: saline.
The mark [8] stands for this setting: dose: 200.0 mg/kg/injection, schedule: Q01DX009 (ip), vehicle: saline.
Where [9] appears, read: dose: 100.0 mg/kg/injection, schedule: Q04DX003 (ip), vehicle: saline.
The mark [10] stands for this setting: dose: 200.0 mg/kg/injection, schedule: Q04DX003 (ip), vehicle: saline.
Setting [11] is: dose: 400.0 mg/kg/injection, schedule: Q04DX003 (ip), vehicle: saline.

Several values for one entry are separate records, joined by “and”; a condition that tells them apart may be missing. Equal values may be shown once. Toxic doses and inconclusive results are not listed.

In the case of `Cc1ccc2c(c1)CN(C13CC4CC(CC(C4)C1)C3)CO2`, the T/C was 95 % of control (dose: 66.0 mg/kg/injection, schedule: Q04DX003 (ip), vehicle: saline with Tween-80); 100 % of control (dose: 100.0 mg/kg/injection, schedule: Q04DX003 (ip), vehicle: saline with Tween-80); 100 % of control (dose: 150.0 mg/kg/injection, schedule: Q04DX003 (ip), vehicle: saline with Tween-80); 105 % of control (dose: 200.0 mg/kg/injection, schedule: Q04DX003 (ip), vehicle: saline with Tween-80); 115 % of control (dose: 400.0 mg/kg/injection, schedule: Q04DX003 (ip), vehicle: saline with Tween-80).

Take `N/N=C1/C=Cc2cccc3cccc1c23`: the T/C reads like this: under setting [1], 89 % of control; under setting [2], 89 % of control.

Turning to `COCCOCn1cccc1Cc1ccc(C)cc1`, the T/C is 100 % of control (dose: 100.0 mg/kg/injection, schedule: Q01DX001 (ip), vehicle: distilled water + alcohol); 96 % of control (dose: 200.0 mg/kg/injection, schedule: Q01DX001 (ip), vehicle: distilled water + alcohol); 99 % of control (dose: 400.0 mg/kg/injection, schedule: Q01DX001 (ip), vehicle: distilled water + alcohol).

Turning to `C[N+](C)(Cc1ccccc1)c1nnn[n-]1`, the T/C runs as follows: (dose: 50.0 mg/kg/injection, schedule: Q01DX001 (ip), vehicle: Klucel (hydroxypropylcellulose) (HPC)) 97 % of control; under setting [3], 95 % of control; under setting [4], 105 % of control.

On to `CC1(C)CN(C(C)(C)C)COC1OC1OCN(C(C)(C)C)CC1(C)C` (centres undefined), for which the T/C runs as follows: (dose: 37.5 mg/kg/injection, schedule: Q01DX009 (ip), vehicle: saline with Tween-80) 118 % of control; (dose: 75.0 mg/kg/injection, schedule: Q01DX009 (ip), vehicle: saline with Tween-80) 109 % of control; (dose: 150.0 mg/kg/injection, schedule: Q01DX009 (ip), vehicle: saline with Tween-80) 119 % of control.

Consider `COc1ccc(CC2(OC(C)=O)N=NC(C)(C)O2)cc1` (centres undefined), for which the T/C was 103 % of control (dose: 50.0 mg/kg/injection, schedule: Q01DX005 (ip), vehicle: Klucel (hydroxypropylcellulose) (HPC)); 98 % of control (dose: 100.0 mg/kg/injection, schedule: Q01DX005 (ip), vehicle: Klucel (hydroxypropylcellulose) (HPC)); 98 % of control (dose: 200.0 mg/kg/injection, schedule: Q01DX005 (ip), vehicle: Klucel (hydroxypropylcellulose) (HPC)).

Consider `OC1CSCc2ccccc21` (centres undefined), for which the T/C reads like this: (dose: 25.0 mg/kg/injection, schedule: Q01DX009 (ip), vehicle: other) 109 % of control; (dose: 50.0 mg/kg/injection, schedule: Q01DX009 (ip), vehicle: other) 102 % of control; (dose: 100.0 mg/kg/injection, schedule: Q01DX009 (ip), vehicle: other) 109 % of control; (dose: 200.0 mg/kg/injection, schedule: Q01DX009 (ip), vehicle: other) 108 % of control.

Consider `c1ccc(CNc2ccnc3c2ccc2ccccc23)cc1`, for which the T/C by setting is: under setting [3], 100 % of control; under setting [4], 97 % of control; (dose: 400.0 mg/kg/injection, schedule: Q01DX001 (ip), vehicle: Klucel (hydroxypropylcellulose) (HPC)) 100 % of control.

Turning to `O=C(O)c1cscn1.O=C(O)c1cscn1.O=C(O)c1cscn1.O=C(O)c1cscn1.[Cl][Rh][Cl]`, the T/C is 101 % of control (dose: 50.0 mg/kg/injection, schedule: Q01DX005 (ip), vehicle: saline + alcohol); 107 % of control (dose: 100.0 mg/kg/injection, schedule: Q01DX005 (ip), vehicle: saline + alcohol); 104 % of control (dose: 200.0 mg/kg/injection, schedule: Q01DX005 (ip), vehicle: saline + alcohol).

For `CC(C)=CCC/C(C)=C/CC/C(C)=C/CC/C=C(\C)CC/C=C(\C)CCC[N+](C)(C)[O-]`, the T/C by setting is: (dose: 60.0 mg/kg/injection, schedule: Q01DX005 (ip), vehicle: saline) 101 % of control; (dose: 120.0 mg/kg/injection, schedule: Q01DX005 (ip), vehicle: saline) 101 % of control; (dose: 240.0 mg/kg/injection, schedule: Q01DX005 (ip), vehicle: saline) 99 % of control.

Regarding `CCC(C)C(NC(=O)C(C)NC(=O)OCc1ccccc1)C(=O)O` (centres undefined), the T/C is 101 % of control under setting [1], 101 % of control under setting [2] and 100 % of control under setting [5].

For `N#CSc1ccc2nc(N)sc2c1`, the T/C by setting is: (dose: 6.25 mg/kg/injection, schedule: Q01DX009 (ip), vehicle: Klucel (hydroxypropylcellulose) (HPC)) 111 % of control; (dose: 12.5 mg/kg/injection, schedule: Q01DX009 (ip), vehicle: Klucel (hydroxypropylcellulose) (HPC)) 111 % of control; (dose: 25.0 mg/kg/injection, schedule: Q01DX009 (ip), vehicle: Klucel (hydroxypropylcellulose) (HPC)) 104 % of control.

For the molecule `COc1ccc(Cl)cc1NC(=O)NNC(=O)C(=O)NC1CC1`, the T/C was 100 % of control (dose: 50.0 mg/kg/injection, schedule: Q01DX009 (ip), vehicle: saline with Tween-80); 97 % of control (dose: 100.0 mg/kg/injection, schedule: Q01DX009 (ip), vehicle: saline with Tween-80); 102 % of control (dose: 200.0 mg/kg/injection, schedule: Q01DX009 (ip), vehicle: saline with Tween-80).

Take `O=c1[nH]c(Cl)nc2n[nH]c(Br)c12`: the T/C by setting is: (dose: 100.0 mg/kg/injection, schedule: Q01DX001 (ip), vehicle: saline with Tween-80) 98 % of control; (dose: 200.0 mg/kg/injection, schedule: Q01DX001 (ip), vehicle: saline with Tween-80) 103 % of control.

In the case of `O=C1Nc2ccccc2/C1=N/N=C/c1ccccc1Cl`, the T/C is 99 % of control and 88 % of control (dose: 50.0 mg/kg/injection, schedule: Q01DX009 (ip), vehicle: Klucel (hydroxypropylcellulose) (HPC)); 86 % of control and 97 % of control (dose: 100.0 mg/kg/injection, schedule: Q01DX009 (ip), vehicle: Klucel (hydroxypropylcellulose) (HPC)); 96 % of control (dose: 200.0 mg/kg/injection, schedule: Q01DX009 (ip), vehicle: Klucel (hydroxypropylcellulose) (HPC)).

With `CC(C)=CCC1=C(OC2OC(CO)C(O)C(O)C2O)C(=O)c2ccccc2C1=O` (centres undefined), the T/C runs as follows: (dose: 6.25 mg/kg/injection, schedule: Q01DX009 (ip), vehicle: saline with Tween-80) 121 % of control; (dose: 12.5 mg/kg/injection, schedule: Q01DX009 (ip), vehicle: saline with Tween-80) 118 % of control; (dose: 25.0 mg/kg/injection, schedule: Q01DX009 (ip), vehicle: saline with Tween-80) 114 % of control.

For `O=NN(CCCl)C(=O)NCCO`, the T/C by setting is: (dose: 0.78 mg/kg/injection, schedule: Q01DX005 (ip), vehicle: water) 96 % of control; (dose: 3.12 mg/kg/injection, schedule: Q01DX005 (ip), vehicle: water) 104 % of control; (dose: 3.13 mg/kg/injection, schedule: Q01DX005 (ip), vehicle: water) 250 % of control; (dose: 12.5 mg/kg/injection, schedule: Q01DX005 (ip), vehicle: water) 116 % of control; (dose: 25.0 mg/kg/injection, schedule: Q01DX005 (ip), vehicle: water) 150 % of control; (dose: 50.0 mg/kg/injection, schedule: Q01DX005 (ip), vehicle: water) 218 % of control.

As for `CC(C)C[N+]1(Cc2ccc(Cl)c(Cl)c2)CCOCC1`, the T/C by setting is: (dose: 100.0 mg/kg/injection, schedule: Q04DX002 (ip), vehicle: saline with Tween-80) 99 % of control; (dose: 200.0 mg/kg/injection, schedule: Q04DX002 (ip), vehicle: saline with Tween-80) 108 % of control.

Turning to `O=C1CSC(=S)N1c1ccc(N=Nc2ccccc2)cc1`, the T/C by setting is: under setting [6], 98 % of control; under setting [7], 99 % of control; under setting [8], 86 % of control.

With `O=[N+]([O-])/C=C/c1cc(Br)c(O)c(Br)c1`, the T/C is 96 % of control under setting [6], 115 % of control under setting [7] and 96 % of control under setting [8].

For `COC(=O)C(C)(OC)OC`, the T/C is, setting by setting: under setting [9], 100 % of control; under setting [10], 109 % of control; under setting [11], 100 % of control.

For `CCOC(=O)c1cnc(Sc2ncccc2[N+](=O)[O-])nc1N`, the T/C runs as follows: under setting [9], 95 % of control; under setting [10], 98 % of control; under setting [11], 92 % of control.

On to `O=C(O)CCCC1CCCCC1.[Mn]`, for which the T/C is 116 % of control under setting [1], 108 % of control under setting [2] and 99 % of control under setting [5].

As for `COCCC(=NC(C)(C)C)Nc1c(Cl)cccc1Cl`, the T/C is 110 % of control under setting [6] and 108 % of control under setting [7].
